Results as given in US9708314B2, “Heterocyclic amide compound” (NISSAN CHEMICAL INDUSTRIES, LTD., priority 2013, dated 2017).

Legend:
Format in all cases: in vivo
[1] = test system: Monochoria vaginalis; experiment: Test Example 2: herbicidal activity, application during weed generation in submerged conditions; details: Eighteenth Table; application herbicide amount 320 g/ha
How it was run: (§1)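 Post-emergence application under submerged conditions: water-diluted emulsion dosed onto the water surface (g/ha) when weeds reach one- to two-leaf stage. Soil flooded to 4 cm; greenhouse 25–30 °C. Herbicidal ratio graded in six classes, 0 (≤5%) to 5 (≥90%), at three weeks.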

[2] = test system: Scirpus juncoides; experiment: as above; details: Eighteenth Table; application herbicide amount 320 g/ha
How it was run: as §1

[3] = test system: Echinochloa oryzacola Vasing.; experiment: as above; details: Eighteenth Table; application herbicide amount 320 g/ha
How it was run: as §1

[4] = test system: directly sowed Oryza sativa; experiment: Test Example 3: effect on crop by application to foliage (Wagner pot, water depth 0.1-0.5 cm); details: Nineteenth Table; application to foliage; application herbicide amount 320 g/ha
How it was run: (§2)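 Seeds were sown in alluvial soil in Wagner pots, grown for 14 days at 25–30 °C, then sprayed uniformly on foliage with the emulsified compound diluted to a given rate per hectare. Injury was graded three weeks after treatment from 0 (≤5%) to 5 (≥90%).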

[5] = test system: Monochoria vaginalis; experiment: Test Example 1: herbicidal activity, application before weed generation in submerged conditions; details: Application herbicide amount 320 g/ha; Seventeenth Table
How it was run: (§3)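 Rating, on a six-step scale from almost no effect (0) to almost completely withered (5), was made three weeks after pre-emergence treatment. Treatment was surface application to flooded pots at g/ha rates, with plants kept at 25° C. to 30° C.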

[6] = test system: Scirpus juncoides; experiment: as above; details: Application herbicide amount 320 g/ha; Seventeenth Table
How it was run: as §3

[7] = test system: Echinochloa oryzacola Vasing.; experiment: as above; details: Application herbicide amount 320 g/ha; Seventeenth Table
How it was run: as §3

[8] = test system: Cyperus difformis; experiment: Test Example 3: herbicidal effect by application to foliage (Wagner pot, water depth 0.1-0.5 cm); details: Nineteenth Table; application to foliage; application herbicide amount 320 g/ha
How it was run: as §2

[9] = test system: Leptochloa chinensis; experiment: as above; details: Nineteenth Table; application to foliage; application herbicide amount 320 g/ha
How it was run: as §2

[10] = test system: Echinochloa crus-galli var. crus-galli; experiment: as above; details: Nineteenth Table; application to foliage; application herbicide amount 320 g/ha
How it was run: as §2

| SMILES | C (Monochoria vaginalis) herbicidal ratio grade [1] | B (Scirpus juncoides) herbicidal ratio grade [2] | A (Echinochloa oryzicola Vasing.) herbicidal ratio grade [3] | b (effect on crop grade) [4] | C: Monochoria vaginalis (herbicidal effect grade) [5] | B: Scirpus juncoides (herbicidal effect grade) [6] | A: Echinochloa oryzicola Vasing. (herbicidal effect grade) [7] | E (herbicidal effect grade) [8] | D (herbicidal effect grade) [9] | H (herbicidal effect grade) [10] |
| --- | --- | --- | --- | --- | --- | --- | --- | --- | --- | --- |
| Cc1nnc(NC(=O)c2ccc(C(F)(F)F)n3c(N4CCS(=O)(=O)CC4)nnc23)o1 [1-120] | 2 (Herbicidal ratio of 20% or more and less than 40%) | 3 (Herbicidal ratio of 40% or more and less than 70%) | 3 (Herbicidal ratio of 40% or more and less than 70%) | 3 (Herbicidal ratio of 40% or more and less than 70%) | 1 (Herbicidal ratio of 5% or more and less than 20%) | 3 (Herbicidal ratio of 40% or more and less than 70%) | 5 (Herbicidal ratio of 90% or more (almost completely withered)) | 5 (Herbicidal ratio of 90% or more (almost completely withered)) | 5 (Herbicidal ratio of 90% or more (almost completely withered)) | 5 (Herbicidal ratio of 90% or more (almost completely withered)) |
| COCCN(C)c1nnc2c(C(=O)Nc3nnco3)ccc(C(F)(F)F)n12 [1-121] | 4 (Herbicidal ratio of 70% or more and less than 90%) | 4 (Herbicidal ratio of 70% or more and less than 90%) | 4 (Herbicidal ratio of 70% or more and less than 90%) | 3 (Herbicidal ratio of 40% or more and less than 70%) | 4 (Herbicidal ratio of 70% or more and less than 90%) | 4 (Herbicidal ratio of 70% or more and less than 90%) | 5 (Herbicidal ratio of 90% or more (almost completely withered)) | 5 (Herbicidal ratio of 90% or more (almost completely withered)) | 5 (Herbicidal ratio of 90% or more (almost completely withered)) | 5 (Herbicidal ratio of 90% or more (almost completely withered)) |
| CC(C)N(C)c1nnc2c(C(=O)Nc3nnco3)ccc(C(F)(F)F)n12 [1-122] | 3 (Herbicidal ratio of 40% or more and less than 70%) | 3 (Herbicidal ratio of 40% or more and less than 70%) | 4 (Herbicidal ratio of 70% or more and less than 90%) | 3 (Herbicidal ratio of 40% or more and less than 70%) | 5 (Herbicidal ratio of 90% or more (almost completely withered)) | 5 (Herbicidal ratio of 90% or more (almost completely withered)) | 5 (Herbicidal ratio of 90% or more (almost completely withered)) | 5 (Herbicidal ratio of 90% or more (almost completely withered)) | 5 (Herbicidal ratio of 90% or more (almost completely withered)) | 5 (Herbicidal ratio of 90% or more (almost completely withered)) |
| CN(c1nnc2c(C(=O)Nc3nnco3)ccc(C(F)(F)F)n12)C1CCCCC1 [1-123] | 3 (Herbicidal ratio of 40% or more and less than 70%) | 2 (Herbicidal ratio of 20% or more and less than 40%) | 3 (Herbicidal ratio of 40% or more and less than 70%) | 1 (Herbicidal ratio of 5% or more and less than 20%) | 4 (Herbicidal ratio of 70% or more and less than 90%) | 4 (Herbicidal ratio of 70% or more and less than 90%) | 5 (Herbicidal ratio of 90% or more (almost completely withered)) | 4 (Herbicidal ratio of 70% or more and less than 90%) | 4 (Herbicidal ratio of 70% or more and less than 90%) | 4 (Herbicidal ratio of 70% or more and less than 90%) |
| Cc1nnc(NC(=O)c2ccc(C(F)(F)F)n3c(SCC(F)(F)F)nnc23)o1 [1-124] | 1 (Herbicidal ratio of 5% or more and less than 20%) | 3 (Herbicidal ratio of 40% or more and less than 70%) | 3 (Herbicidal ratio of 40% or more and less than 70%) | 0 (Herbicidal ratio of 5% or less (almost no effect)) | 1 (Herbicidal ratio of 5% or more and less than 20%) | 3 (Herbicidal ratio of 40% or more and less than 70%) | 3 (Herbicidal ratio of 40% or more and less than 70%) | 4 (Herbicidal ratio of 70% or more and less than 90%) | 4 (Herbicidal ratio of 70% or more and less than 90%) | 4 (Herbicidal ratio of 70% or more and less than 90%) |
| CC(=O)CSc1nnc2c(C(=O)Nc3nnc(C)o3)ccc(C(F)(F)F)n12 [1-125] | 1 (Herbicidal ratio of 5% or more and less than 20%) | 2 (Herbicidal ratio of 20% or more and less than 40%) | 0 (Herbicidal ratio of 5% or less (almost no effect)) | 1 (Herbicidal ratio of 5% or more and less than 20%) | 1 (Herbicidal ratio of 5% or more and less than 20%) | 3 (Herbicidal ratio of 40% or more and less than 70%) | 0 (Herbicidal ratio of 5% or less (almost no effect)) | 3 (Herbicidal ratio of 40% or more and less than 70%) | 4 (Herbicidal ratio of 70% or more and less than 90%) | 5 (Herbicidal ratio of 90% or more (almost completely withered)) |
| Cc1nnc(NC(=O)c2ccc(C(F)(F)F)n3c(SCC4OCCO4)nnc23)o1 [1-126] | 3 (Herbicidal ratio of 40% or more and less than 70%) | 3 (Herbicidal ratio of 40% or more and less than 70%) | 1 (Herbicidal ratio of 5% or more and less than 20%) | 0 (Herbicidal ratio of 5% or less (almost no effect)) | 2 (Herbicidal ratio of 20% or more and less than 40%) | 4 (Herbicidal ratio of 70% or more and less than 90%) | 3 (Herbicidal ratio of 40% or more and less than 70%) | 4 (Herbicidal ratio of 70% or more and less than 90%) | 4 (Herbicidal ratio of 70% or more and less than 90%) | 4 (Herbicidal ratio of 70% or more and less than 90%) |
